{"source": "patent US20190167676A1", "about": "“METHODS FOR IMPROVING RESISTANCE TO SKELETAL MUSCLE FATIGUE” (Cytokinetics, Inc., priority 2012, published 2019)", "key": {"mouse EDL muscle": {"test_system": "mouse EDL muscle", "details": "cited from earlier work"}, "[1]": {"experiment": "Plasma levels at end of rotarod experiment", "format": "in vivo, rat", "details": "end of experiment (not at Cmax)", "protocol": "The effect of the fast skeletal muscle troponin activator 1-(2-(((trans)-3-fluoro-1-(3-fluoropyridin-2-yl)cyclobutyl)methylamino)pyrimidin-5-yl)-1H-pyrrole-3-carboxamide (Compound C) on muscle fatigue in healthy rats was determined by a rotarod running time test. […] On the day of the assessment, the animals began by running at an increasing speed from 14-16 RPM over 5 minutes. Rats were then run at a constantly accelerating rate from 12 RPM to 25 RPM over the course of 10 minutes. Time to fall was recorded, with the test being terminated at 600 seconds. The plasma levels were determined at the end of the experiments (not at Cmax). The plasma levels for the indicated doses were determined to be the following: […]"}, "LAD-HF rats": {"test_system": "LAD-HF rats", "experiment": "Fatiguing rotarod in rat heart failure model", "format": "in vivo", "source_text": "To determine the effect of Compound C on skeletal muscle function in patients with heart failure, a rat heart failure model was used. Female Sprague Dawley rats (<250 g) were obtained from Charles River Laboratories having the left anterior descending coronary artery ligated prior to shipping (LAD-HF rats). Sham operated controls were also obtained from the same surgical preparation (sham controls). All rats underwent assessment of cardiac function after a three day acclimation to provide baseline levels. Animals were assessed on weeks 4, 7 and 10 to observe the progress of exercise intolerance at least 3 days after echocardiography. Exercise performance was assessed using the fatiguing rotarod protocol described in Example 11 (5 minute run ramping from 14-16 RPM, followed by run time assessment during a 10 minute ramp from 12 to 25 RPM). LAD-HF rats were selected based on a left ventricular fractional shortening <25% and reduced run time compared to sham controls. […] Decreases in fractional shortening (determined by echocardiography) were apparent.\nAnimals were assigned in a cross-over fashion whereby half of the animals received Compound C (10 mg/kg PO) and half received vehicle (19.3%PEG: 80% (15%) captisol, pH3, 0.2% tween, 0.5% HPMC) via oral gavage 30 minutes prior to rotarod assessment on Day 1 and then the opposite treatment on Day 2."}, "[2]": {"test_system": "extensor digitorum longus (EDL) muscles", "experiment": "In situ EDL force-frequency in sham and LAD-HF rats", "format": "in vivo, rat", "details": "3 mg/kg IV, sham and LAD-HF groups", "protocol": "An in situ assessment of selected animals from Example 12 was run at the end of the study to assess functional characteristics of extensor digitorum longus (EDL) muscles in Sham and LAD animals. Effects with and without Compound C (3 mg/kg IV) were assessed.\nRats were placed under anesthesia and the skin around the experimental leg was removed. The distal end of the extensor digitorum longus (EDL) muscle and its associated tendon were then isolated. The rat was then placed on the platform of an Aurora in situ muscle analysis rig wherein the knee was immobilized and the distal tendon cut and tied to the arm of a force transducer. The muscle was stimulated directly via steel needle electrodes contacting the peroneal nerve. Muscle contractile properties were assessed by applying an electrical current to the nerve and recording the force generated by the muscle via a servomotor. The muscle length was adjusted to produce the maximum isometric force (Lo) after sub-maximal stimulation (30 Hz, 1 ms pulses, 350 ms train duration). Once Lo had been established, the nerve was stimulated every 2 minutes with a 30 Hz train (1 ms stimuli, 350 ms duration) for the course of the experiment.\nOnce the preparation was stable, a force frequency relationship was assessed, then Compound C (3 mg/kg IV) or vehicle was injected and a second force frequency was assessed. […]"}, "sham and HF EDL fibers": {"test_system": "sham and HF EDL fibers", "experiment": "Skinned EDL fiber force-Ca2+ relationship", "parameters": "species or system rat", "details": "3 μM, sham and HF EDL muscle", "protocol": "(§1) Muscle tissue for in vitro skinned fiber studies were prepared using an adapted protocol based on Lynch and Faulkner (Am J Physiol 275:C1548-54 (1998)). Briefly, rat muscle from sham and HF animals were rapidly dissected, rinsed in physiological saline, and then incubated in skinning solution (125 mM K-propionate, 20 mM imidazole, 5 mM EGTA, 2 mM MgCl2, 2 mM ATP, pH 7.0) supplemented with 0.5% TritonX-100 (Sigma Chemicals, St. Louis, Mo.) for 30 minutes at 4° C. The buffer was then changed to a storage solution (125 mM K-propionate, 20 mM imidazole, 5 mM EGTA, 2 mM MgCl2, 2 mM ATP, glycerol 50%, pH 7.0) and stored at −20° C. for later use.\n(§2) For skinned fiber analysis, single muscle fibers were dissected from larger segments of tissue in rigor buffer at 4° C. ([…], pH 7.0). They were then suspended between a 400 A force transducer (Aurora Scientific, Ontario, Canada) and a fixed post and secured with 2-4 μl of a 5% solution of methylcellulose in acetone. […] Tension was generated in each fiber by changing fiber buffer over to relax buffer supplemented with 1 mM EGTA and a 15 mM solution of calcium chloride and calculated using the web resource (www.stanford.edu/˜cpatton/webmaxc/webmaxcS.htm). […]"}, "[3]": {"test_system": "sham and LAD-HF diaphragm fibers", "experiment": "Skinned diaphragm fiber Ca2+ sensitivity", "parameters": "species or system rat", "details": "3 μM", "protocol": "as §1, §2"}, "[4]": {"test_system": "sham and LAD-HF diaphragm strips", "experiment": "Diaphragm force-frequency by electrical field stimulation in organ bath", "parameters": "species or system rat", "details": "30 μM, sham and LAD-HF diaphragms, submaximal frequencies of electrical stimulation", "protocol": "Diaphragm contractile force was measured by electrical field stimulation in an organ bath system based on a standard operating protocol adapted from the Treat NMD website (http://www.treat-nmd.eu/downloads/file/sops/dmd/MDX/DMD M.1.2.002.pdf). The diaphragm and the last floating rib from sham and HF animals were excised, rinsed in physiological saline, and placed in a temperature controlled water-jacketed chamber (26-27° C.) containing Krebs-Henseleit Buffer (118 mM NaCl, 10 mM glucose, 4.6 mM KCl, 1.2 mM KH2PO4, 1.2 mM MgSO4*7 H2O, 24.8 mM NaHCO3, 2.5 mM CaCl2, 50 mg/L tubocurarine, 50 U/L insulin, pH:7.4) that was continuously aerated with 95% O2/[…]. After 10 minutes of equilibration, vertical strips spanning the floating rib to the central tendon were cut from diaphragms. Braided silk sutures were tied at the central tendon and floating rib and attached to a force transducer between two platinum electrodes. Diaphragm strips were set to a length that produced maximum twitch tension (Lo). The force-frequency profile of the muscle was obtained by stimulating the muscle at frequencies between 10-150 Hz (Grass Stimulator, 800 ms train duration, 0.6 ms pulse width). Compound C was suspended in DMSO and directly added into the bath."}, "healthy rats": {"test_system": "healthy rats", "experiment": "Rotarod running assay", "format": "in vivo, rat", "details": "control treatments by oral gavage: 300 mg/kg (60 min), caffeine 10 mg/kg (30 min), phosphoserine 1000 mg/kg (24 hours prior)", "protocol": "Female Sprague Dawley rats (210-260 g) were obtained from Charles River Laboratories and acclimated in the test facility for a minimum of six days prior to the start of the study. All rats were trained the day prior to compound administration. Training consisted of placing the rats on the rotating drum (rod), starting at a low constant speed (10 RPM). The rats were acclimated to walk on the drum for 5 minutes before resting. A second training session of an increasing speed from 14-16 RPM was initiated after all rats in the experimental group had finished the first training session. […] On the day of the experiment animals were dosed thirty minutes prior to start of test. The test began with a 5 minute primer session, whereby animals were run at an increasing speed from 14-16 RPM over 5 minutes. Rats were then run at a constantly accelerating rate from 12 RPM to 25 RPM over the course of 10 minutes. […] Time to fall was recorded, with the test being terminated at 900 seconds. Compound A was administered via oral gavage 30 minutes prior to assessment. Each dose was formulated as a suspension containing 0.2% Tween 80, 0.5% HPMC and water. Dose volume was 5 mL/kg. Vehicle (0.2% Tween 80, 0.5% HPMC and water) was administered similarly. Control treatments were chosen based on association with amelioration of central fatigue (caffeine, Davis 2003), muscular fatigue (creatine, Boyadjiev, 2007) and dual central/muscular fatigue (phosphoserine, […] 1976)."}, "[5]": {"test_system": "rat plantarflexor muscles", "experiment": "Rat plantar flexor force and power in situ", "format": "in vivo", "source_text": "Rats were placed under anesthesia using isoflurane and the sciatic nerve of the experimental leg exposed. The rat was then placed on the platform of an Aurora in-situ muscle analysis rig (806C), maintained at body temperature via a circulating water system. The knee was immobilized in a clamp between two sharpened screws and the foot attached securely to the footplate of a force transducer (Aurora Scientific, Ontario, Canada) using laboratory tape. The muscle was stimulated directly via the sciatic nerve. For isolation of the nerve, a 1 cm incision was made at the upper thigh and the overlying muscle was dissected to expose an approximate 5 mm stretch of the sciatic nerve. This was then dissected free of surrounding connective tissue and a pair of stainless steel needle electrodes (0.10 mm) were hooked around the exposed nerve. The peroneal branch was severed to remove innervation to the plantar-extensor muscle groups. Muscle contractile properties were assessed by applying an electrical current to the nerve and recording the force generated by the muscle via a servomotor. Isokinetic contractile properties were assessed as force generated during a pre-programmed movement of the footplate. Footplate movements were 0.7 radians in size ([…]).\nSolutions of Compound A (50% PEG300/10% EtOH/40% cavitron formulation) were administered via a femoral vein catheter as a single slow bolus over a 2 min period, with a maximal dosage volume of 5 ml/Kg. During the experiment, blood was drawn via the tail vein for compound concentration analysis. At the end of each assay, the length and weight of the muscle was recorded, and measured force normalized to the mass of the muscle (N/g).\nCompound A increased force generation throughout the curve to generate a total of 55% more work over the 300 second period, while maintaining a similar profile to that of the vehicle.\nThe same protocol was repeated with a second skeletal muscle troponin activator, 1-((1R)-1-methylpropyl)-6-chloro-7-pyrazolylimidazo[4,5-b]pyridin-2-ol (Compound B). Compound B and analogous skeletal muscle troponin activators are disclosed in U.S. Pat. No. 7,989,469. […] 0.7 radian displacement and stimulation frequency calculated to provide 50% of maximum isokinetic tension. Compound B maintained force generation throughout the curve, at almost 50% of vehicle stimulation frequency, to generate the same total work over the 300 second period, while maintaining a similar profile to that of the vehicle."}}}
{"molecule": "O=C1CN(/N=C/c2ccc(-c3ccc([N+](=O)[O-])cc3)o2)C(O)=N1", "note": "[dantrolene]", "values": [{"measurement": "tetanic tension and fatigue development", "setting": "mouse EDL muscle; 20 μM", "result": "decreased early tetanic tension yet abolished overall fatigue development"}]}
{"molecule": "NC(=O)c1ccn(-c2cnc(NCC3(c4ncccc4F)CC(F)C3)nc2)c1", "note": "(stereo not drawn) [Compound C, 1-(2-(((trans)-3-fluoro-1-(3-fluoropyridin-2-yl)cyclobutyl)methylamino)pyrimidin-5-yl)-1H-pyrrole-3-carboxamide]", "values": [{"measurement": "[Plasma]", "setting": "[1]; 0.01 mg/kg", "result": 0.003, "unit": "µM"}, {"measurement": "[Plasma]", "setting": "[1]; 0.03 mg/kg", "result": 0.007, "unit": "µM"}, {"measurement": "[Plasma]", "setting": "[1]; 0.1 mg/kg", "result": 0.024, "unit": "µM"}, {"measurement": "[Plasma]", "setting": "[1]; 0.3 mg/kg", "result": 0.083, "unit": "µM"}, {"measurement": "[Plasma]", "setting": "[1]; 1 mg/kg", "result": 0.204, "unit": "µM"}, {"measurement": "[Plasma]", "setting": "[1]; 3 mg/kg", "result": 0.478, "unit": "µM"}, {"measurement": "[Plasma]", "setting": "[1]; 10 mg/kg", "result": 1.95, "unit": "µM"}, {"measurement": "[Plasma]", "setting": "[1]; 30 mg/kg", "result": 3.64, "unit": "µM"}, {"measurement": "[Plasma]", "setting": "[1]; 100 mg/kg", "result": 28.0, "unit": "µM"}, {"measurement": "increase of rotarod running time compared to vehicle treatment", "setting": "LAD-HF rats; 10 mg/kg PO", "result": "approximately 2.5 fold"}, {"measurement": "rotarod running time (mean±S.E.)", "setting": "LAD-HF rats; 10 mg/kg PO 30 minutes prior, vehicle 111±32", "result": "277 ± 32", "unit": "s"}, {"measurement": "response to low frequency stimulation", "setting": "[2]", "result": "increased response to low frequency stimulation in both groups"}, {"measurement": "force-Ca2+ relationship", "setting": "sham and HF EDL fibers", "result": "leftward shift in the force-Ca^2+ relationship"}, {"measurement": "Ca2+ sensitivity", "setting": "[3]", "result": "significantly increased Ca^2+ sensitivity"}, {"measurement": "diaphragm force", "setting": "[4]", "result": "significantly increased force"}]}
{"molecule": "N[C@@H](COP(=O)(O)O)C(=O)O", "note": "[phosphoserne, phosphoserine, reference compound]", "values": [{"measurement": "running time vs vehicle", "setting": "healthy rats", "result": "no significant difference"}]}
{"molecule": "CN(CC(=O)O)C(=N)N", "note": "[creatine, reference compound]", "values": [{"measurement": "running time vs vehicle", "setting": "healthy rats", "result": "no significant difference"}]}
{"molecule": "Cn1c(=O)c2c(ncn2C)n(C)c1=O", "note": "[caffeine, reference compound]", "values": [{"measurement": "running time vs vehicle", "setting": "healthy rats", "result": "no significant difference"}, {"measurement": "tetanic tension and muscle fatigue", "setting": "mouse EDL muscle; repeated 60 Hz stimulation over 6 minutes", "result": "increased initial tetanic EDL tension but accelerated and accentuated muscle fatigue"}]}
{"molecule": "1-((1R)-1-methylpropyl)-6-chloro-7-pyrazolylimidazo[4,5-b]pyridin-2-ol [Compound B]", "values": [{"measurement": "isokinetic force frequency relationship", "setting": "[5]; at 3.1 radians/s", "result": "increased in the submaximal range in a dose dependent manner"}, {"measurement": "force-velocity relationship", "setting": "[5]; at 30 Hz", "result": "increased across all velocities in a dose and velocity dependent manner"}, {"measurement": "power output", "setting": "[5]; corresponding to force velocities at 30 Hz", "result": "dose-dependent increase"}, {"measurement": "isometric force frequency relationship", "setting": "[5]; in situ", "result": "increased in the submaximal range in a dose dependent manner"}, {"measurement": "stimulation frequency to generate the same total work", "setting": "[5]; isokinetic fatigue protocol at 50% of maximum isokinetic tension, 300 second period", "result": "~50 % of vehicle stimulation frequency"}, {"measurement": "more total work over the 300 second period", "setting": "[5]; isokinetic fatigue protocol, 1 flexion per second at 3.1 radians/s, 30 Hz, vs vehicle", "result": 105, "unit": "%"}]}
